Laboratory results from PubChem BioAssay AID248 (DTP/NCI, 2004).
“And” between values parts separate entries of the source, which are not always exact repeats. Identical values can stand only once. Toxic doses and inconclusive results are not listed.

System: L1210 leukemia ip in BDF1 mice, survival T/C
Test: NCI In Vivo Anticancer Drug Screen. Data for tumor model L1210 Leukemia (intraperitoneal) in B6D2F1 (BDF1) mice
Settings: endpoint: mean survival time, higher = longer survival
Summary of the method: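 Each compound was tested against a transplantable tumor grown in mice. The endpoint was survival, with treated animals benchmarked against vehicle controls as a simple ratio.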

[1] = dose: 75.0 mg/kg/injection, schedule: Q01DX001 (ip), vehicle: saline
[2] = dose: 150.0 mg/kg/injection, schedule: Q01DX001 (ip), vehicle: saline
[3] = dose: 300.0 mg/kg/injection, schedule: Q01DX001 (ip), vehicle: saline
[4] = dose: 100.0 mg/kg/injection, schedule: Q01DX009 (ip), vehicle: saline with Tween-80
[5] = dose: 100.0 mg/kg/injection, schedule: Q04DX003 (ip), vehicle: saline with Tween-80
[6] = dose: 200.0 mg/kg/injection, schedule: Q01DX009 (ip), vehicle: saline with Tween-80
[7] = dose: 200.0 mg/kg/injection, schedule: Q04DX003 (ip), vehicle: saline with Tween-80
[8] = dose: 400.0 mg/kg/injection, schedule: Q04DX003 (ip), vehicle: saline with Tween-80
[9] = dose: 50.0 mg/kg/injection, schedule: Q01DX001 (ip), vehicle: saline
[10] = dose: 100.0 mg/kg/injection, schedule: Q01DX001 (ip), vehicle: saline
[11] = dose: 200.0 mg/kg/injection, schedule: Q01DX001 (ip), vehicle: saline
[12] = dose: 400.0 mg/kg/injection, schedule: Q01DX001 (ip), vehicle: saline
[13] = dose: 100.0 mg/kg/injection, schedule: Q04DX003 (ip), vehicle: Klucel (hydroxypropylcellulose) (HPC)
[14] = dose: 200.0 mg/kg/injection, schedule: Q04DX003 (ip), vehicle: Klucel (hydroxypropylcellulose) (HPC)
[15] = dose: 400.0 mg/kg/injection, schedule: Q04DX003 (ip), vehicle: Klucel (hydroxypropylcellulose) (HPC)
[16] = dose: 100.0 mg/kg/injection, schedule: Q01DX001 (ip), vehicle: Klucel (hydroxypropylcellulose) (HPC)
[17] = dose: 200.0 mg/kg/injection, schedule: Q01DX001 (ip), vehicle: Klucel (hydroxypropylcellulose) (HPC)
[18] = dose: 400.0 mg/kg/injection, schedule: Q01DX001 (ip), vehicle: Klucel (hydroxypropylcellulose) (HPC)
[19] = dose: 25.0 mg/kg/injection, schedule: Q01DX009 (ip), vehicle: Klucel (hydroxypropylcellulose) (HPC)
[20] = dose: 50.0 mg/kg/injection, schedule: Q01DX009 (ip), vehicle: Klucel (hydroxypropylcellulose) (HPC)
[21] = dose: 100.0 mg/kg/injection, schedule: Q01DX009 (ip), vehicle: Klucel (hydroxypropylcellulose) (HPC)
[22] = dose: 200.0 mg/kg/injection, schedule: Q01DX009 (ip), vehicle: Klucel (hydroxypropylcellulose) (HPC)
[23] = dose: 400.0 mg/kg/injection, schedule: Q01DX009 (ip), vehicle: Klucel (hydroxypropylcellulose) (HPC)
[24] = dose: 100.0 mg/kg/injection, schedule: Q04DX002 (ip), vehicle: Klucel (hydroxypropylcellulose) (HPC)
[25] = dose: 100.0 mg/kg/injection, schedule: Q04DX002 (ip), vehicle: saline
[26] = dose: 200.0 mg/kg/injection, schedule: Q04DX002 (ip), vehicle: Klucel (hydroxypropylcellulose) (HPC)
[27] = dose: 200.0 mg/kg/injection, schedule: Q04DX002 (ip), vehicle: saline
[28] = dose: 400.0 mg/kg/injection, schedule: Q04DX002 (ip), vehicle: Klucel (hydroxypropylcellulose) (HPC)
[29] = dose: 400.0 mg/kg/injection, schedule: Q04DX002 (ip), vehicle: saline

O=C(O)c1c(Cl)c(Cl)c(Cl)c(Cl)c1C(=O)c1ccccc1
T/C [1]: 109 % of control | T/C [2]: 113 % of control | T/C [3]: 101 % of control

CCCNC(=O)Nc1cc(Cl)ccc1OC
T/C [4]: 100 % of control | T/C [5]: 95 % of control | T/C [6]: 94 % of control | T/C [7]: 103 % of control | T/C (dose: 400.0 mg/kg/injection, schedule: Q01DX009 (ip), vehicle: saline with Tween-80): 96 % of control | T/C [8]: 94 % of control

OCC(O)C(O)C(O)C(O)C(c1ccc(Br)cc1)c1ccc(Br)cc1 (stereo unspecified)
T/C [9]: 106 % of control | T/C [10]: 106 % of control | T/C [11]: 101 % of control | T/C [12]: 98 % of control

O=C(O)/C=C/C(=O)Nc1cccc(NC(=O)/C=C/C(=O)O)c1
T/C [13]: 94 % of control | T/C [14]: 97 % of control | T/C [15]: 96 % of control

O=Cc1cc(O)ccc1[N+](=O)[O-]
T/C [4]: 98 % of control | T/C [5]: 103 % of control | T/C [6]: 88 % of control | T/C [7]: 104 % of control | T/C [8]: 109 % of control

c1cc[c]([Pb]([c]2ccccc2)([c]2ccccc2)[n]2cnc3cncnc32)cc1
T/C (dose: 5.0 mg/kg/injection, schedule: Q01DX001 (ip), vehicle: other): 103 % of control | T/C (dose: 10.0 mg/kg/injection, schedule: Q01DX001 (ip), vehicle: other): 95 % of control

CC1(C)C2CCC1(C)C(/C=N/NC(N)=O)C2 (stereo unspecified)
T/C [16]: 94 % of control | T/C [17]: 102 % of control | T/C [18]: 105 % of control

CCCCCCCCCCCC(=O)N/N=C/c1ccccc1OC
T/C [19]: 90 % of control | T/C [20]: 94 % of control | T/C [21]: 87 % of control and 90 % of control

CCCCCCC(C)CC(CCCCCC)NCCOC(=O)c1ccc([N+](=O)[O-])cc1 (stereo unspecified)
T/C [1]: 105 % of control | T/C [2]: 100 % of control | T/C [3]: 121 % of control

CCCCCCCCCCCCCCCCCC(=O)C(C(=O)OCC)C(=O)OCC
T/C (dose: 100.0 mg/kg/injection, schedule: Q01DX001 (ip), vehicle: other): 93 % of control | T/C (dose: 200.0 mg/kg/injection, schedule: Q01DX001 (ip), vehicle: other): 88 % of control | T/C (dose: 400.0 mg/kg/injection, schedule: Q01DX001 (ip), vehicle: other): 90 % of control

Clc1nc2ccccc2nc1C(Cl)Cl
T/C [16]: 101 % of control | T/C [17]: 110 % of control

Fc1ccc(/C=C2/c3cc(Cl)ccc3-c3c(Cl)cc(Cl)cc32)cc1
T/C [16]: 96 % of control | T/C [21]: 98 % of control | T/C [13]: 98 % of control | T/C [17]: 90 % of control | T/C [22]: 104 % of control | T/C [14]: 90 % of control | T/C [18]: 89 % of control | T/C [23]: 114 % of control | T/C [15]: 95 % of control

C/C=C1\CCCCN(Cc2ccccc2)CCC1
T/C [1]: 104 % of control | T/C [2]: 98 % of control

CCOC(=O)C(C)C(=O)c1ccccc1 (stereo unspecified)
T/C (dose: 50.0 mg/kg/injection, schedule: Q01DX001 (ip), vehicle: carboxymethylcellulose (CMC)): 107 % of control | T/C (dose: 100.0 mg/kg/injection, schedule: Q01DX001 (ip), vehicle: carboxymethylcellulose (CMC)): 102 % of control | T/C [10]: 95 % of control | T/C (dose: 100.0 mg/kg/injection, schedule: Q01DX009 (ip), vehicle: acetone): 96 % of control | T/C (dose: 200.0 mg/kg/injection, schedule: Q01DX001 (ip), vehicle: carboxymethylcellulose (CMC)): 107 % of control | T/C [11]: 94 % of control | T/C (dose: 200.0 mg/kg/injection, schedule: Q01DX009 (ip), vehicle: acetone): 93 % of control | T/C (dose: 400.0 mg/kg/injection, schedule: Q01DX001 (ip), vehicle: carboxymethylcellulose (CMC)): 107 % of control | T/C [12]: 94 % of control | T/C (dose: 400.0 mg/kg/injection, schedule: Q01DX009 (ip), vehicle: acetone): 98 % of control

O=Cc1cccc(OCc2cccc([N+](=O)[O-])c2)c1
T/C [21]: 98 % of control | T/C [24]: 108 % of control | T/C [25]: 102 % of control | T/C [22]: 102 % of control | T/C [26]: 105 % of control | T/C [27]: 97 % of control | T/C [23]: 95 % of control | T/C [28]: 97 % of control | T/C [29]: 108 % of control

COc1cc(Br)c(NC(C)=O)cc1OC
T/C [10]: 98 % of control | T/C [11]: 108 % of control | T/C [12]: 96 % of control

CCOC(=O)CCCc1c(C)[nH]c2ccc(Cl)cc12
T/C [24]: 98 % of control | T/C [26]: 102 % of control | T/C [28]: 91 % of control

CCCC[As](=O)(O)CCCc1ccccc1
T/C (dose: 0.78 mg/kg/injection, schedule: Q01DX009 (ip), vehicle: saline): 97 % of control | T/C (dose: 1.56 mg/kg/injection, schedule: Q01DX009 (ip), vehicle: saline): 100 % of control | T/C (dose: 3.13 mg/kg/injection, schedule: Q01DX009 (ip), vehicle: saline): 103 % of control

O=C/C=C\c1ccccc1O
T/C [10]: 105 % of control | T/C [11]: 105 % of control

O=C(O)CNC(=O)c1ccc(C(=O)NCC(=O)O)cc1
T/C (dose: 100.0 mg/kg/injection, schedule: Q04DX003 (ip), vehicle: saline): 106 % of control | T/C (dose: 200.0 mg/kg/injection, schedule: Q04DX003 (ip), vehicle: saline): 105 % of control | T/C (dose: 400.0 mg/kg/injection, schedule: Q04DX003 (ip), vehicle: saline): 97 % of control

COc1ccc(C2CC(O)C3CCC2C3)cc1 (stereo unspecified)
T/C [24]: 93 % of control | T/C [26]: 97 % of control | T/C [28]: 93 % of control

CCC[CH2][Sn]([Br])([c]1ccccc1)[c]1ccccc1
T/C (dose: 0.39 mg/kg/injection, schedule: Q01DX009 (ip), vehicle: saline with Tween-80): 92 % of control | T/C (dose: 0.78 mg/kg/injection, schedule: Q01DX009 (ip), vehicle: saline with Tween-80): 101 % of control | T/C (dose: 1.56 mg/kg/injection, schedule: Q01DX009 (ip), vehicle: saline with Tween-80): 89 % of control

COC1=C(Br)[C@H](O)[C@](O)(CC#N)C=C1Br
T/C (dose: 12.5 mg/kg/injection, schedule: Q01DX009 (ip), vehicle: saline): 97 % of control | T/C (dose: 25.0 mg/kg/injection, schedule: Q01DX001 (ip), vehicle: Klucel (hydroxypropylcellulose) (HPC)): 97 % of control | T/C [19]: 101 % of control | T/C (dose: 25.0 mg/kg/injection, schedule: Q01DX009 (ip), vehicle: saline): 110 % of control | T/C (dose: 44.0 mg/kg/injection, schedule: Q01DX001 (ip), vehicle: saline): 103 % of control | T/C (dose: 50.0 mg/kg/injection, schedule: Q01DX001 (ip), vehicle: Klucel (hydroxypropylcellulose) (HPC)): 104 % of control | T/C [20]: 94 % of control | T/C (dose: 50.0 mg/kg/injection, schedule: Q01DX009 (ip), vehicle: saline): 107 % of control | T/C (dose: 66.0 mg/kg/injection, schedule: Q01DX001 (ip), vehicle: saline): 106 % of control | T/C [10]: 117 % of control and 229 % of control | T/C [21]: 108 % of control | T/C (dose: 100.0 mg/kg/injection, schedule: Q01DX009 (ip), vehicle: saline): 91 % of control | T/C [2]: 121 % of control

O=C(O)C(CCCN1C(=O)c2ccccc2C1=O)N1C(=O)c2ccccc2C1=O (stereo unspecified)
T/C [21]: 93 % of control | T/C [22]: 94 % of control | T/C [23]: 98 % of control

Nc1nc(CCc2ccc(NC(=O)CBr)cc2)c(CCCCc2ccccc2)c(=O)[nH]1
T/C [9]: 104 % of control | T/C [10]: 102 % of control | T/C [11]: 96 % of control | T/C [12]: 110 % of control

COC1=NS(=O)(=O)C=C(c2ccccc2)O1
T/C (dose: 300.0 mg/kg/injection, schedule: Q04DX002 (ip), vehicle: Klucel (hydroxypropylcellulose) (HPC)): 100 % of control

O=C(O)c1nnn(Cc2ccccc2)c1C(=O)O
T/C [25]: 104 % of control | T/C [27]: 104 % of control | T/C [29]: 96 % of control
